Results: patent US20150218534A1, “MODIFIED DNA POLYMERASE” (TOYOBO CO., LTD., priority 2012, published 2015)

System: human genomic DNA (about 1.3 kb) with dUTP added
Test: Evaluation of uracil (dUTP) sensitivity by PCR with dUTP added to the reaction
Format: biochemical
Details: for Evaluation of dUTP resisitance on a 11-point scale: closer to 0 = stronger sensitivity to dUTP, closer to 10 = lower sensitivity, summary of Examples 1 to 3; for dUTP resistance: dUTP added to 0.5, 5, 50, 100, 200 μM, about 1.3 kb, 30 cycles, 1 U enzyme
Summary of the method: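 Uracil sensitivity is judged by whether a roughly 1.3 kb band still appears on ethidium bromide-stained agarose gel. Tolerated dUTP was tested at final 0.5 to 200 μM (0.5, 5, 50, 100, 200 μM), using 10 ng human genomic DNA, 1 U enzyme, 0.2 mM dNTPs and 1.5 mM MgSO4 in KOD-Plus-Ver. 2 buffer. Cycling: 94° C for 30 s, then 30 cycles of 98° C/65° C/68° C.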

## KOD P36R/V93K: modified KOD DNA polymerase with P36R and V93K
  Evaluation of dUTP resisitance on a 11-point scale: 0
  dUTP resistance: 0 µM

## KOD D141A/E143A/P36H: KOD D141A/E143A (exo(−)) mutant with P36H
  Evaluation of dUTP resisitance on a 11-point scale: 8
  dUTP resistance: >200 µM

## KOD D141A/E143A/P36R: KOD D141A/E143A (exo(−)) mutant with P36R
  Evaluation of dUTP resisitance on a 11-point scale: 8
  dUTP resistance: >200 µM

## KOD Y7A/P115Δ: modified KOD DNA polymerase with Y7A and lacking P115
  Evaluation of dUTP resisitance on a 11-point scale: 0
  dUTP resistance: 0 µM

## KOD P115Δ: modified KOD DNA polymerase lacking P115
  Evaluation of dUTP resisitance on a 11-point scale: 0
  dUTP resistance: 0 µM

## KOD N210D/Y7A: KOD N210D (exo(−)) mutant with Y7A
  Evaluation of dUTP resisitance on a 11-point scale: 2
  dUTP resistance: 5 µM

## KOD H147E/P36R: KOD H147E (exo(+)) mutant with P36R
  Evaluation of dUTP resisitance on a 11-point scale: 6
  dUTP resistance: >200 µM

## KOD N210D/P36H: KOD N210D (exo(−)) mutant with P36H
  Evaluation of dUTP resisitance on a 11-point scale: 8
  dUTP resistance: >200 µM

## KOD Y7A/P36R: modified KOD DNA polymerase with Y7A and P36R
  Evaluation of dUTP resisitance on a 11-point scale: 7
  dUTP resistance: >200 µM

## KOD H147E/P36H: KOD H147E (exo(+)) mutant with P36H
  Evaluation of dUTP resisitance on a 11-point scale: 6
  dUTP resistance: >200 µM

## KOD D141A/E143A/Y7A/P36H: KOD D141A/E143A (exo(−)) mutant with Y7A and P36H
  Evaluation of dUTP resisitance on a 11-point scale: 10
  dUTP resistance: >200 µM

## KOD H147E/P36H/V93K: KOD H147E (exo(+)) mutant with P36H and V93K
  Evaluation of dUTP resisitance on a 11-point scale: 8
  dUTP resistance: >200 µM

## KOD D141A/E143A/Y7A: KOD D141A/E143A (exo(−)) mutant with Y7A
  Evaluation of dUTP resisitance on a 11-point scale: 2
  dUTP resistance: 5 µM

## KOD H147E/Y7A/V93K: KOD H147E (exo(+)) mutant with Y7A and V93K
  Evaluation of dUTP resisitance on a 11-point scale: 8
  dUTP resistance: >200 µM

## KOD N210D/Y7A/V93K: KOD N210D (exo(−)) mutant with Y7A and V93K
  Evaluation of dUTP resisitance on a 11-point scale: 10
  dUTP resistance: >200 µM

## KOD N210D/P115Δ: KOD N210D (exo(−)) mutant lacking P115
  Evaluation of dUTP resisitance on a 11-point scale: 0
  dUTP resistance: 0 µM

## KOD I142R/P36H: KOD I142R (exo(−)) mutant with P36H
  Evaluation of dUTP resisitance on a 11-point scale: 8
  dUTP resistance: >200 µM

## KOD D141A/E143A/Y7A/V93K: KOD D141A/E143A (exo(−)) mutant with Y7A and V93K
  Evaluation of dUTP resisitance on a 11-point scale: 10
  dUTP resistance: >200 µM

## KOD D141A/E143A/V93K: KOD D141A/E143A (exo(−)) mutant with V93K
  Evaluation of dUTP resisitance on a 11-point scale: 8
  dUTP resistance: >200 µM

## KOD H147E/Y7A/P36H: KOD H147E (exo(+)) mutant with Y7A and P36H
  Evaluation of dUTP resisitance on a 11-point scale: 8
  dUTP resistance: >200 µM

## KOD D141A/E143A/Y7A/P36R: KOD D141A/E143A (exo(−)) mutant with Y7A and P36R
  Evaluation of dUTP resisitance on a 11-point scale: 10
  dUTP resistance: >200 µM

## KOD N210D/Y7A/P115Δ: KOD N210D (exo(−)) mutant with Y7A and lacking P115
  Evaluation of dUTP resisitance on a 11-point scale: 0
  dUTP resistance: 0 µM

## KOD H147E/Y7A/P36R: KOD H147E (exo(+)) mutant with Y7A and P36R
  Evaluation of dUTP resisitance on a 11-point scale: 8
  dUTP resistance: >200 µM

## KOD N210D/V93R: KOD N210D (exo(−)) mutant with V93R
  Evaluation of dUTP resisitance on a 11-point scale: 8
  dUTP resistance: >200 µM
